Here are results for 3 compounds from patent publication EP1175907A1, “REMEDIES” (Takara Shuzo Co, Ltd., priority 1999, dated 2000).

Where “and” joins values, the source holds several entries; their conditions need not be identical. Identical values can stand only once. *1 amine or outer side, *2 acyl side, *3 side chain or, on linkers, in order; H or OH if unused. Where a SMILES comes first, the peptide text is derived from it. Bridges are numbered along the chain shown (N, C = ends). Roman numbers before positions name the chains, in order. [ ]: non-standard residue; d: D form. Actinocin(9to1) = Cc1c2oc3c(C)ccc(C(=O)[*:1])c3nc-2c(C(=O)[*:2])c(N)c1=O; NMeV = CN[C@H](C(=O)O)C(C)C; Sar = CNCC(=O)O

The test system of experiment [1] is MRC-5 cells. Description: HGF production in MRC-5 cells with actinomycin D (RNA synthesis inhibitor). The settings on record: for Amount of HGF Produced (in Medium): control = 100%. In kind it is cell-based, Human. As for the experimental part: (3) Five-hundred microliters of MRC-5 cells (CCL171: manufactured by DAINIPPON PHARMACEUTICAL CO., LTD., code. 02-021) suspended in a DME medium containing 10% fetal bovine serum so as to have a concentration of 1 × 10^5 cells/ml were added into each well of a 48-well cell culture plate. The cells were cultured at 37°C for 24 hours in the presence of 5% CO2, and then the medium was exchanged for a DME medium containing 1% fetal bovine serum. Thereafter, actinomycin D (RNA synthesis inhibitor: manufactured by Sigma) was added thereto so as to have a final concentration of 0, 0.1, or 1 µg/ml, and a sample to be analyzed was further added thereto. The cells were then cultured for 24 hours. This medium was collected, and the amount of HGF in the medium was determined by using Quantikine Human Hepatocyte Growth Factor (HGF) ELISA Kit (manufactured by Funakoshi, Code. RS-0641-00). As to the amount of HGF produced, negative control was regarded as 100%. As to the inhibitory ratio, the inhibitory ratio (%) of the actinomycin D-added fraction was calculated on the basis of the amount of HGF produced when the fucoidan was added alone at each concentration. The fucoidan derived from Kjellmaniella crassifolia described in item (1) of Reference Example 1 was added so as to have a final concentration of 1, 10 or 100 µg/ml. As the negative control, distilled water was added in the same volume as that of the sample. Each experiment was carried out twice, and an average value was taken. […] It was clarified from these findings that RNA synthesis was probably involved in the induction of HGF production by the fucoidan, not simply freeing of HGF from the cells.
(4) Five-hundred microliters of MRC-5 cells (CCL171: manufactured by DAINIPPON PHARMACEUTICAL CO., LTD., code. 02-021) suspended in a DME medium containing 10% fetal bovine serum so as to have a concentration of 1 × 10^5 cells/ml were added into each well of a 48-well cell culture plate. The cells were cultured at 37°C for 24 hours in the presence of 5% CO2, and then the medium was exchanged for a DME medium containing 1% fetal bovine serum. Thereafter, actinomycin D (RNA synthesis inhibitor: manufactured by Sigma) was added thereto so as to have a final concentration of 0, 0.1, or 1 µg/ml, and a sample was further added thereto. The cells were then cultured for 24 hours. This medium was collected, and the amount of HGF in the medium was determined by using Quantikine Human Hepatocyte Growth Factor (HGF) ELISA Kit (manufactured by Funakoshi, Code. RS-0641-00). In addition, the cells were washed with PBS, and thereafter dissolved in 500 µl of a cytolytic buffer (50 mM HEPES, pH 7.4; 10 mM EDTA, 0.1% Triton x 100; 1 mM PMSF; 1 µg/ml pepstatin A and 1 µg/ml, leupeptin). Further, in order to completely dissolve the cells, the mixture was subjected to sonication treatment, and then centrifuged, to give a supernatant (cell extract). The amount of HGF in the cell was determined in the same manner as that of the concentration of HGF in the medium. As to the amount of HGF produced, negative control was regarded as 100%. As to the inhibitory ratio, the inhibitory ratio (%) of the actinomycin D-added fraction was calculated on the basis of the amount of HGF produced when 7-12SFd-F was added alone at each concentration. 7-12SFd-F was added so as to have a final concentration of 1,10 or 100 µg/ml. As the negative control, distilled water was added in the same volume as that of the sample. Each experiment was carried out three times, and an average value was taken. […] It was clarified from these findings that RNA synthesis was probably involved in the induction of HGF production by 7-12SFd-F, not simply freeing of HGF from the cells.

The subject of another experiment is NHDF cells. Briefly: HGF in medium of NHDF cells with or without minoxidil. In kind it is cell-based, human. The procedure:
The cells were cultured for 24 hours. […] Also, the same steps were carried out for the group added with only the sample without adding minoxidil. The medium was collected, and the amount of HGF in the medium was determined by using Quantikine Human Hepatocyte Growth Factor (HGF) ELISA Kit. […] As a negative control, distilled water was added in the same volume as that of the sample. Each experiment was carried out three times, and an average value was taken.

Experiment [2] concerns MRC-5 cells. Briefly: synergistic effect on HGF production with PGE1 or IL-1α in MRC-5 cells. Type of experiment: cell-based, Human. The settings on record: control = 100%. From the text: (1) Synergistic effect for the induction action for HGF production of the fucoidan derived from Kjellmaniella crassifolia described in item (1) of Reference Example 1 with prostaglandin or IL-1 was studied in the same manner as that in item (1) of Example 1.
Specifically, the synergistic effect for the induction activity for HGF production was studied by simultaneously adding the fucoidan and PGE1 (manufactured by Wako Pure Chemicals Industries, Ltd.) or IL-1α (manufactured by Genzyme).
The fucoidan sample was added so as to have a final concentration of 1, 10 or 100 µg/ml. PGE1 was added so as to have a concentration of 0.1 or 1 µM, the IL-1α was added so as to have a concentration of 1 ng/ml. As a control, distilled water was added in same volume as that of the sample.
The synergistic effect was studied in comparison to the amount produced of a case where the fucoidan sample or PGE1 or IL-1α was added alone.
In Tables 35 and 36, the amount of HGF produced of the control was regarded as 100%. Each experiment was carried out twice, and an average value was taken. […]
(2) Synergistic effect for the induction action for HGF production of 7-12SFd-F of Reference Example 2 with prostaglandin or IL-1 was studied in the same manner as that in item (1) of Example 2. […]

Experiment [3] has as its system MRC-5 cells. Description: mRNA of HGF in MRC-5 cells (RT-PCR). Type of experiment: cell-based. To be noted: 7-12SFd-F 100 µg/ml, LM Heparin 1 µg/ml or PGE1 1 µM; Hours 0 to 24, compared to control. As for the experimental part:
MRC-5 cells (CCL 171: manufactured by DAINIPPON PHARMACEUTICAL CO., LTD., code. 02-021) cultured in a DMEM medium containing 10% fetal bovine serum were suspended in the DMEM medium containing 10% fetal bovine serum so as to have a concentration of 2.5 × 10^5 cells/ml, and added into each well of a 6-well cell culture plate. The cells were cultured at 37°C for 24 hours in the presence of 5% CO2. Thereafter, the medium was exchanged for a DMEM medium containing 1% fetal bovine serum, and the cells were further cultured for 22 hours. Thereafter, the medium was exchanged for each medium added with 7-12SFd-F prepared in item (3) of Reference Example 2 so as to have a final concentration of 100 µg/ml, LM Heparin (manufactured by Celsus Laboratories) so as to have a final concentration of 1 µg/ml, or prostaglandin E1 (PGE1) (manufactured by Wako Pure Chemicals Industries, Ltd.) dissolved in dimethyl sulfoxide (DMSO) so as to have a final concentration of 1 µM. As a medium for control group, the medium added with DMSO was used. Here, the solvent of each additive mentioned above was added so as to have a concentration of 1% in all cases. […] In addition, in order to carry out a semi-quantitative experiment, â-actin, a housekeeping gene, was also detected. […] In all of the samples, mRNA of HGF was detected. […]

Turning to `Cc1c2oc3c(C)ccc(C(=O)N[C@@H]4C(=O)N[C@H](C(C)C)C(=O)N5CCC[C@H]5C(=O)N(C)CC(=O)N(C)[C@@H](C(C)C)C(=O)O[C@@H]4C)c3nc-2c(C(=O)N[C@@H]2C(=O)N[C@H](C(C)C)C(=O)N3CCC[C@H]3C(=O)N(C)CC(=O)N(C)[C@@H](C(C)C)C(=O)O[C@@H]2C)c(N)c1=O` [Actinomycin D, actinomycin D] (I: T[dV]P[Sar][NMeV] / II: T[dV]P[Sar][NMeV]; ester I:1-I:C, II:1-II:C; linker I:N-II:N via Actinocin(9to1)), in the experiment with MRC-5 cells [1] (Actinomycin D 0.1 µg/ml alone), the “Amount of HGF Produced (Total in Cells and in Medium)” value is on record as 61%; the “Inhibitory Ratio Where Actinomycin D Non-Added Group Was Regarded as 100% (Total in Cells and in Medium)” value turned out to be 39%; the “Inhibitory Ratio Where Actinomycin D Non-Added Group Was Regarded as 100% (in Medium)” value is 21% and 24%; the “Amount of HGF Produced (in Medium)” value is 79% and 76%. Moreover, in the experiment on MRC-5 cells [1] (Actinomycin D 1 µg/ml alone), the “Amount of HGF Produced (Total in Cells and in Medium)” value was determined as 59%; the “Inhibitory Ratio Where Actinomycin D Non-Added Group Was Regarded as 100% (Total in Cells and in Medium)” value is 41%; the “Inhibitory Ratio Where Actinomycin D Non-Added Group Was Regarded as 100% (in Medium)” value is 17% and 20%; the “Amount of HGF Produced (in Medium)” value is 83% and 80%.

As to `Nc1cc(N2CCCCC2)nc(N)[n+]1[O-]` [Minoxidil, minoxidil], the “Concentration of HGF in Medium” value in the experiment on NHDF cells (Minoxidil 10 µg/ml alone) was 126.04 pg/mL; with NHDF cells (Minoxidil 100 µg/ml alone) it was 148.83 pg/mL and 137.20 pg/mL.

Regarding `CCCCC[C@H](O)/C=C/[C@H]1[C@H](O)CC(=O)[C@@H]1CCCCCCC(=O)O` [PGE1, prostaglandin E1], the “Amount of HGF Produced” value is 119% and 123% in the experiment with MRC-5 cells [2] (PGE1 0.1 µM alone); 157% and 170% in the experiment on MRC-5 cells [2] (PGE1 1 µM alone). Also, the “induction of mRNA of HGF” value with MRC-5 cells [3] is given as “found”.
